Patent US9573961B2, “Inhibitors of the renal outer medullary potassium channel” (Merck Sharp & Dohme Corp., priority 2012, dated 2017)
Read-outs that look alike come from different tables or passages of the source.

How the values were obtained:
[1] = biological target: Kir1.1 (ROMK1) (Homo sapiens (Human), UniProt P48048); experiment: Electrophysiology Assay (whole cell voltage clamp, IonWorks Quattro); assay type: cell-based; conditions: block during voltage step to 0 mV
Method: Chinese hamster ovary cells stably expressing Kir1.1 channels were maintained in T-75 flasks in cell culture media in a humidified 10% CO2 incubator at 37° C. Prior to an experiment, Kir1.1 expression was induced by overnight incubation with 1 mM sodium butyrate. […] After centrifugation, the cell pellet was resuspended in approximately 4.0 mL of bath solution and placed in the IonWorks instrument. The intracellular solution consisted of (in mM): 80 K gluconate, 40 KCl, 20 KF, 3.2 MgCl2, 3 EGTA, 5 Hepes, pH 7.4. Electrical access to the cytoplasm was achieved by perforation in 0.13 mg/mL amphotericin B for 4 min. […] Voltage protocols and current recordings were performed using the IonWorks HT software/hardware system. Currents were sampled at 1 kHz. No correction for liquid junction potentials was used. The test pulse, consisting of a 100 ms step to 0 mV from a holding potential of −70 mV, followed by a 100 ms voltage ramp from −70 mV to +70 mV, was applied before and after a 6 min compound incubation period. Test compounds were prepared by diluting DMSO stock solutions into the bath solution at 3× the final concentration and placed in the instrument in 96-well polypropylene plates. Current amplitudes were measured using the IonWorks software.

[2] = biological target: hROMK (hKir1.1) (Homo sapiens (Human), UniProt P48048); experiment: Thallium Flux Assay (ROMK channel functional thallium flux, FLIPR-Tetra); assay type: cell-based; conditions: read-out: Thallium Flux IC50
Method: Cell Culture Conditions—HEK293 cells stably expressing hROMK (hKir1.1) were grown at 37° C. in a 10% CO2 humidified incubator in complete growth media: Dulbecco's Modified Eagle Medium supplemented with non-essential amino acids, Penicillin/Streptomycin/Glutamine, G418 and FBS. At >80% confluency, aspirate the media from the flask and rinse with 10 mL Calcium/Magnesium-free PBS. […] To dislodge the cell, gently bang the side of the flask with your hand. Triturate the cells completely and then transfer the cells to 25 mL complete media. Centrifuge at 1,500 rpm for 6 min followed by resuspension in complete growth media and determine cell concentration. […] Under ideal growth conditions and appropriate tissue culture practices, this cell line is stable for 40-45 passages.
FluxOR Kit Components (Invitrogen F10017) • FluxOR™ Reagent (Component A) • FluxOR™ Assay Buffer (Component B)—10× Concentrate • PowerLoad™ Concentrate (Component C)—100× Concentrate • Probenecid (Component D)—Lyophilized sample is kept at −20° C. Water soluble, 100× after solubilization in 1 mL water. […] Store at 4° C. • Thallium sulfate (Tl2SO4) Concentrate (Component G)—50 mM in water. Store at 4° C. • DMSO (dimethyl sulfoxide, Component H)—1 mL (100%)
Can be stored at room temperature • Stimulant Buffer (prepared at 5× final concentration in 1× FluxOR™ Chloride-Free Buffer): 7.5 mM Thallium sulfate and 0.75 mM Potassium sulfate (to give a final assay concentration of 3 mM Thallium/0.3 mM Potassium). Store at 4° C. when not in use. If kept sterile, this solution is good for months.
Assay Protocol—The ROMK channel functional thallium flux assay is performed in 384 wells, using the FLIPR-Tetra instrument. HEK-hKir1.1 cells are seeded in Poly-D-Lysine microplates and kept in a 37° C.-10% CO2 incubator overnight. On the day of the experiment, the growth media is replaced with the FluxOR™ reagent loading buffer and incubated, protected from light, at ambient temperature (23-25° C.) for 90 min. The loading buffer is replaced with assay buffer±test compound followed by 30 min incubation at ambient temperature, where the Thallium/Potassium stimulant is added to the microplate.
Step Protocol • 1. Seed HEK-hKir1.1 cells (50 μl at 20,000 cells/well) in 384-well PDL coated Microplates • 2. Allow cells to adhere overnight in humidified 37° C./10% CO2 incubator • 3. Completely remove cell growth media from microplate and replace with 25 μl loading buffer • 4. Incubate Microplate at room temperature, protected form light, for 90 min • 5. Remove loading buffer and replace with 25 μl 1× Assay Buffer±test compound. • 6. Incubate microplate at room temperature, protected from light, for 30 min • 7. […] Excitation=400 nm, Emission=460 & 580 nm. Collect data for ˜10 min.
Data Calculation—The fluorescence intensity of wells containing 3 μM of a standard control ROMK inhibitor of the present invention is used to define the ROMK-sensitive component of thallium flux. Fluorescence in the presence of test compounds is normalized to control values to provide % fluorescence change.

[3] = Electrophysiology IC50, Chinese hamster ovary cells stably expressing Kir1.1
[4] = HEK293 cells stably expressing hROMK (hKir1.1)
[5] = Chinese hamster ovary cells stably expressing Kir1.1, read-out: Electrophysiology IC50

Kir1.1 (ROMK1), sequence (P48048 whole entry): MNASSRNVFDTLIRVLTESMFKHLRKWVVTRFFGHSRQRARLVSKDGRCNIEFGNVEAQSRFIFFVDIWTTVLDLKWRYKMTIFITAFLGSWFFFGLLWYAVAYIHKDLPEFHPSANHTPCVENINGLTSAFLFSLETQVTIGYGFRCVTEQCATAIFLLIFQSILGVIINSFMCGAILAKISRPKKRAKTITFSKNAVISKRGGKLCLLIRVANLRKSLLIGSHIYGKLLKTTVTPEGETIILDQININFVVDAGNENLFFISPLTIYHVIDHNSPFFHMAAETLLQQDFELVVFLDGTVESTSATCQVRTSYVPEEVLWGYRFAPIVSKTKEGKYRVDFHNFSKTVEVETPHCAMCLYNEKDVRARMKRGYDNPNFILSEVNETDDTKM
hROMK (hKir1.1), sequence (P48048 whole entry): as above

COc1cc(F)c([C@@H]2CN3CCN(C(=O)Cc4ccc(-n5cnnn5)cc4)C[C@H]3CO2)cc1C#N [Example 27, 4-fluoro-2-methoxy-5-[(3R,9aS)-8-{[4-(1H-tetrazol-1-yl)phenyl]acetyl}octahydropyrazino[2,1-c][1,4]oxazin-3-yl]benzonitrile]
IC50 [1, 3]: 390 nM | IC50 [2, 4]: 180 nM

COc1cc(CC(=O)N2CCN3C[C@H](c4ccc5c(c4)CCOC5=O)OC[C@H]3C2)ccc1C#N [Example 28, 2-methoxy-4-{2-oxo-2-[(3S,9aR)-3-(1-oxo-3,4-dihydro-1H-isochromen-6-yl)hexahydropyrazino[2,1-c][1,4]oxazin-8(1H)-yl]ethyl}benzonitrile]
IC50 [1, 3]: 130 nM | IC50 [2, 4]: 330 nM

COc1cc(CC(=O)N2CCN3C[C@@H](c4ccc5c(c4)CCOC5=O)OC[C@@H]3C2)ccc1C#N [Example 29, 2-methoxy-4-{2-oxo-2-[(3R,9aS)-3-(1-oxo-3,4-dihydro-1H-isochromen-6-yl)hexahydropyrazino[2,1-c][1,4]oxazin-8(1H)-yl]ethyl}benzonitrile]
IC50 [1, 3]: 130 nM | IC50 [2, 4]: 300 nM

COc1cc(CC(=O)N2CCN3C[C@@H](c4ccc5c(c4)CCOC5=O)OC[C@@H]3C2)c(F)cc1C#N [Example 30, 5-fluoro-2-methoxy-4-{2-oxo-2-[(3R,9aS)-3-(1-oxo-3,4-dihydro-1H-isochromen-6-yl)hexahydropyrazino[2,1-c][1,4]oxazin-8(1H)-yl]ethyl}benzonitrile]
IC50 [1, 3]: 110 nM | IC50 [2, 4]: 100 nM

COc1cc(CC(=O)N2CCN3C[C@H](c4ccc5c(c4)CCOC5=O)OC[C@H]3C2)c(F)cc1C#N [Example 31, 5-fluoro-2-methoxy-4-{2-oxo-2-[(3S,9aR)-3-(1-oxo-3,4-dihydro-1H-isochromen-6-yl)hexahydropyrazino[2,1-c][1,4]oxazin-8(1H)-yl]ethyl}benzonitrile]
IC50 [1, 3]: 120 nM | IC50 [2, 4]: 570 nM

COc1c([C@@H]2CN3CCN(C(=O)Cc4ccc(-n5cnnn5)cc4)C[C@H]3CO2)ccc(F)c1C#N [Example 32, 6-fluoro-2-methoxy-3-[(3R,9aS)-8-{[4-(1H-tetrazol-1-yl)phenyl]acetyl}octahydropyrazino[2,1-c][1,4]oxazin-3-yl]benzonitrile]
IC50 [1, 3]: 140 nM | IC50 [2]: 100 nM

COc1c([C@H]2CN3CCN(C(=O)Cc4ccc(-n5cnnn5)cc4)C[C@H]3CO2)ccc(F)c1C#N [Example 33, 6-fluoro-2-methoxy-3-[(3S,9aS)-8-{[4-(1H-tetrazol-1-yl)phenyl]acetyl}octahydropyrazino[2,1-c][1,4]oxazin-3-yl]benzonitrile]
IC50 [1, 3]: 130 nM | IC50 [2, 4]: 110 nM

Cc1c([C@@H]2CN3CCN(C(=O)Cc4ccc(-n5cnnn5)cc4)C[C@H]3CO2)ccc(Cl)c1C#N [Example 34, 6-chloro-2-methyl-3-[(3R,9aS)-8-{[4-(1H-tetrazol-1-yl)phenyl]acetyl}octahydropyrazino[2,1-c][1,4]oxazin-3-yl]benzonitrile]
IC50 [1, 3]: 200 nM | IC50 [2, 4]: 190 nM

Cc1c([C@H]2CN3CCN(C(=O)Cc4ccc(-n5cnnn5)cc4)C[C@H]3CO2)ccc(Cl)c1C#N [Example 35, 6-chloro-2-methyl-3-[(3S,9aS)-8-{[4-(1H-tetrazol-1-yl)phenyl]acetyl}octahydropyrazino[2,1-c][1,4]oxazin-3-yl]benzonitrile]
IC50 [1, 3]: 260 nM | IC50 [2, 4]: 760 nM

Cc1cc(F)c(C#N)cc1[C@@H]1CN2CCN(C(=O)Cc3ccc(-n4cnnn4)cc3)C[C@H]2CO1 [Example 38, 2-fluoro-4-methyl-5-[(3R,9aS)-8-{[4-(1H-tetrazol-1-yl)phenyl]acetyl}octahydropyrazino[2,1-c][1,4]oxazin-3-yl]benzonitrile]
IC50 [1, 5]: 180 nM | IC50 [2, 4]: 110 nM

Cc1c([C@@H]2CN3CCN(C(=O)Cc4ccc(-n5cnnn5)cc4)C[C@H]3CO2)csc1C#N [Example 39, 3-methyl-4-[(3R,9aS)-8-{[4-(1H-tetrazol-1-yl)phenyl]acetyl}octahydropyrazino[2,1-c][1,4]oxazin-3-yl]thiophene-2-carbonitrile]
IC50 [1, 3]: 60 nM | IC50 [2, 4]: 60 nM

Cc1c([C@H]2CN3CCN(C(=O)Cc4ccc(-n5cnnn5)cc4)C[C@H]3CO2)csc1C#N [Example 40, 3-methyl-4-[(3S,9aS)-8-{[4-(1H-tetrazol-1-yl)phenyl]acetyl}octahydropyrazino[2,1-c][1,4]oxazin-3-yl]thiophene-2-carbonitrile]
IC50 [1, 3]: 80 nM | IC50 [2, 4]: 90 nM

Cc1c(C#N)cccc1[C@@H]1CN2CCN(C(=O)Cc3ccc(-n4cnnn4)cc3)C[C@H]2CO1 [Example 42, 2-methyl-3-[(3R,9aS)-8-{[4-(1H-tetrazol-1-yl)phenyl]acetyl}octahydropyrazino[2,1-c][1,4]oxazin-3-yl]benzonitrile]
IC50 [1, 5]: 130 nM | IC50 [2, 4]: 90 nM

Cc1c(C#N)cccc1[C@H]1CN2CCN(C(=O)Cc3ccc(-n4cnnn4)cc3)C[C@H]2CO1 [Example 43, 2-methyl-3-[(3S,9aS)-8-{[4-(1H-tetrazol-1-yl)phenyl]acetyl}octahydropyrazino[2,1-c][1,4]oxazin-3-yl]benzonitrile]
IC50 [1, 5]: 170 nM | IC50 [2, 4]: 140 nM

Cc1c([C@H]2CN3CCN(C(=O)C4Cc5ccc(-n6cnnn6)cc5C4)C[C@H]3CO2)ccc(F)c1C#N (stereo partly drawn) [Example 44, 6-fluoro-2-methyl-3-[(3S,9aS)-8-{[5-(1H-tetrazol-1-yl)-2,3-dihydro-1H-inden-2-yl]carbonyl}octahydropyrazino[2,1-c][1,4]oxazin-3-yl]benzonitrile]
IC50 [1, 5]: 160 nM | IC50 [2, 4]: 370 nM

Cc1c([C@@H]2CN3CCN(C(=O)C(C)c4ccc(-n5cnnn5)cc4)C[C@H]3CO2)ccc(F)c1C#N (stereo partly drawn) [Example 45, 6-fluoro-2-methyl-3-[(3R,9aS)-8-{2-[4-(1H-tetrazol-1-yl)phenyl]propanoyl}octahydropyrazino[2,1-c][1,4]oxazin-3-yl]benzonitrile]
IC50 [1, 5]: 210 nM | IC50 [2, 4]: 330 nM

Cc1c([C@H]2CN3CCN(C(=O)Cc4cccc(-n5cnnn5)c4)C[C@H]3CO2)ccc(F)c1C#N [Example 46, 6-fluoro-2-methyl-3-[(3S,9aS)-8-{[3-(1H-tetrazol-1-yl)phenyl]acetyl}octahydropyrazino[2,1-c][1,4]oxazin-3-yl]benzonitrile]
IC50 [1, 5]: 140 nM | IC50 [2, 4]: 240 nM

Cc1c([C@@H]2CN3CCN(C(=O)Cc4cccc(-n5cnnn5)c4)C[C@H]3CO2)ccc(F)c1C#N [Example 47, 6-fluoro-2-methyl-3-[(3R,9aS)-8-{[3-(1H-tetrazol-1-yl)phenyl]acetyl}octahydropyrazino[2,1-c][1,4]oxazin-3-yl]benzonitrile]
IC50 [1, 5]: 90 nM | IC50 [2, 4]: 300 nM

Cc1c(C2CN3CCCN(C(=O)Cc4ccc(-n5cnnn5)cc4)CC3CO2)ccc2c1COC2=O (centres unmarked) [Example 50, 4-methyl-5-(9-{[4-(1H-tetrazol-1-yl)phenyl]acetyl}octahydro-1H-[1,4]oxazino[4,3-a][1,4]diazepin-3-yl)-2-benzofuran-1(3H)-one]
IC50 [1, 3]: 180 nM | IC50 [2, 4]: 740 nM
